Patent US20040081688A1, “Amphiphilic lipid nanoparticles for peptide and/or protein incorporation” (priority 2000, published 2004)

Legend:
[1] = Antide semi-quantitative solubility evaluation (maximum loading) in lipids; assay type: physicochemical; details: Antide maximum loading in the lipid named in the row
[2] = Partition coefficient octanol/water; assay type: physicochemical; details: 24 hours at room temperature, ratio of drug concentration in organic and water phase by RP-HPLC
Description: Partition coefficient: it was determined using octanol as organic phase and water as hydrophilic phase. The two phases were first saturated with each other for 24 hours at room temperature. Antide was then dissolved in the water phase at a concentration well below saturation. An equal volume of organic phase was subsequently added to the water phase and the mixture was kept under stirring for 24 hours at room temperature. Antide concentration in the two phases was determined by RP-HPLC and the partition coefficient was obtained from the ratio between the drug concentration in organic and water phase.
The resulting octanol/water coefficient was 8.56·10^−2

Compound	Antide loading (%) [1]	octanol/water coefficient [2]
CCCCCCCCCCCCCCCCO [Cetil alcohol]	3.7 × 10^−2 - not soluble %	
N-Ac-D-2-Nal, D-pClPhe, D-3-Pal, Ser, NicLys, D-NicLys, Leu, Ilys, Pro, D-Ala, NH2 [Antide]		8.56·10^−2
